{
  "source": "patent US4666931A",
  "about": "“Benzofuran derivatives useful in treating diabetic complications” (Kaken Pharmaceutical Co., Ltd., priority 1984, dated 1987)",
  "key": {"[1]": {"test_system": "aggregation of the washed rabbit platelet by thrombin", "experiment": "Platelet aggregation inhibiting activity (washed rabbit platelet, thrombin)", "format": "cell-based", "settings": "for IC50: Oryctolagus cuniculus, Platelet; for platelet aggregation inhibiting activity relative to Persantin: compared with Persantin (dipyridamole)", "method": "Blood samples were collected from the auricular blood vessel of rabbits (white local breed), and washed platelets were prepared therefrom by the method of Baenziger et al. (N. L. Baenziger and P. W. Majerus, Methods Enzymol., 31, 149 to 155 (1974). The platelets were suspended in a 15 mM Tris-hydrochloric acid buffer with a final concentration of 6×10^8 cells/ml (Tris: tris(hydroxymethyl)aminomethane). Each test compound of the compound Nos. 5, 8, 9, 11, 23, 29, 30 and 33 and Persantin® was added thereto and incubation was carried out at 37° C. for 2 minutes. Then the platelets were stimulated by addition of thrombin (0.2 unit/ml of final concentration; made by Mochida Pharmaceutical Co.) and the aggregation inhibiting activity was estimated by the observation of the aggregation reaction using an aggregometer (made by Briston Co.).\nThe results are shown in Table 3 in terms of IC50 (50% inhibiton concentration in M)."}, "cyclooxygenase": {"test_system": "cyclooxygenase", "experiment": "Cyclooxygenase inhibition: malondialdehyde production from arachidonic acid, 9000 G supernatant of lung homogenate from guinea pig", "format": "biochemical", "settings": "guinea pig lung 9000 G supernatant, compared with aspirin", "method": "Lung from guinea pig was washed with physiological saline and homogenized in 0.1M Tris-hydrochloric acid buffer to prepare a supernatant by cooled centrifugation (9000 G).\nThe inhibiting activity against cyclooxygenase was measured by using the 9000 G supernatant as a source of cyclooxygenase in the presence of 1 mM epinephiline."}, "[2]": {"test_system": "production of malondialdehyde from arachidonic acid by rabbit platelets", "experiment": "Arachidonic acid metabolism inhibiting activity: production of malondialdehyde from arachidonic acid by rabbit platelets", "format": "cell-based", "settings": "Oryctolagus cuniculus, Platelet, arachidonic acid 0.2 mM, read-out: concentration showing 50% inhibition against the production of malondialdehyde from arachidonic acid", "method": "Washed rabbit platelets prepared as in the platelet aggregation inhibiting activity test were suspended in 15 mM Tris-hydrochloric acid buffer with a final concentration of 1×10^8 cell/ml, to which each test compound of the compound Nos. 8, 13, 14, 19, 20, 23, 29, 30 and 33 were added and the resultant was preincubated at 37° C. for five minutes. Then arachidonic acid (a final concentration: 0.2 mM, made by Sigma Chemical Co.) was added thereto and the mixture was preincubated for 1 minute. An amount of the produced malondialdehyde was measured according to the thiobarbiturates method (Ed. Aoki and Shibata, Ketsuekigaku Kenkyukensaho, P 441 to 447)."}, "mice": {"test_system": "mice", "experiment": "Acute toxicity test in mice (oral)", "settings": "mice, oral; for death up to the dose of 3 g/kg body weight: up to 3 g/kg", "method": "(§1) Acute toxicity test in mice was carried out on the benzofuran derivatives of the compound Nos. 3, 5, 9, 21, 23, 26, 29 and 34."}, "[3]": {"experiment": "Acute toxicity test in mice (oral)", "settings": "mouse, in vivo, po", "method": "as §1"}, "[4]": {"target": "T1, aldose reductase from rat lens (Rattus norvegicus, UniProt P07943)", "T1 construct": "the supernatant was prepared as the crude enzyme solution; from tissue; host or cells: lens of male Wistar rats, 10,000 g supernatant of homogenate (crude enzyme)", "experiment": "Aldose reductase inhibiting activity", "format": "biochemical", "settings": "DL-glyceraldehyde substrate, Table 2, read-out: IC50 (50% inhibition concentration in M)", "method": "Wistar male rats were sacrificed by decapitation and the lenses were taken out to be homogenized with a 0.1M phosphate buffer [pH 6.8, containing 1 mM of mercaptoethanol and 1 mM of nicotinamide-adenine dinucleotide phosphate (NADP)]. The homogenate was then centrifuged at 10,000 g for 15 minutes and the supernatant was prepared as the crude enzyme solution."}, "[5]": {"settings": "range for nine compounds, read-out: concentration showing 50% inhibition against the aggregation of the washed rabbit platelet by thrombin"}, "[6]": {"settings": "washed rabbit platelets, thrombin 0.2 unit/ml, 37° C., Table 3, read-out: IC50 (50% inhibition concentration in M)"}},
  "note": "Read-outs that look alike come from different tables or passages of the source.",
  "data": [
    {"smiles": "CC(=O)c1cc2c(S(=O)(=O)NCC(=O)O)ccc(OCc3ccccc3)c2o1", "note": "[Compound 29, 2-acetyl-4-(N-carboxymethylsulfamoyl)-7-benzyloxybenzofuran]", "values": [
      {"measurement": "IC50", "setting": "[1]; [5]", "result": "20 to 200", "unit": "µM"},
      {"measurement": "IC50", "setting": "[1]; [6]", "result": 35, "unit": "µM"},
      {"measurement": "platelet aggregation inhibiting activity relative to Persantin", "setting": "[1]", "result": "equivalent to or more than"},
      {"measurement": "inhibition against malondialdehyde production relative to aspirin", "setting": "cyclooxygenase", "result": "equivalent to or more than"},
      {"measurement": "IC50", "setting": "[2]", "result": "10 to 100", "unit": "µM"},
      {"measurement": "death up to 2 g/kg body weight", "setting": "mice", "result": "no death"},
      {"measurement": "LD50 at 336 h", "setting": "[3]", "result": "> 2000", "unit": "mg/kg"},
      {"measurement": "IC50", "setting": "[4]", "result": 0.05, "unit": "µM"}
    ]},
    {"smiles": "CC(=O)c1cc2c(S(=O)(=O)NCC(=O)O)ccc(OCc3ccc([N+](=O)[O-])cc3)c2o1", "note": "[Compound 23, 2-acetyl-4-(N-carboxymethylsulfamoyl)-7-p-nitrobenzyloxybenzofuran]", "values": [
      {"measurement": "IC50", "setting": "[1]; [5]", "result": "20 to 200", "unit": "µM"},
      {"measurement": "IC50", "setting": "[1]; [6]", "result": 80, "unit": "µM"},
      {"measurement": "platelet aggregation inhibiting activity relative to Persantin", "setting": "[1]", "result": "equivalent to or more than"},
      {"measurement": "inhibition against malondialdehyde production relative to aspirin", "setting": "cyclooxygenase", "result": "equivalent to or more than"},
      {"measurement": "IC50", "setting": "[2]", "result": "10 to 100", "unit": "µM"},
      {"measurement": "death up to 2 g/kg body weight", "setting": "mice", "result": "no death"},
      {"measurement": "LD50 at 336 h", "setting": "[3]", "result": "> 2000", "unit": "mg/kg"},
      {"measurement": "IC50", "setting": "[4]", "result": 0.05, "unit": "µM"}
    ]},
    {"smiles": "CCCCCOc1ccc(S(=O)(=O)NCC(=O)O)c2cc(C(C)=O)oc12", "note": "[Compound 5, 2-acetyl-4-(N-carboxymethylsulfamoyl)-7-n-pentyloxybenzofuran]", "values": [
      {"measurement": "IC50", "setting": "[1]; [5]", "result": "20 to 200", "unit": "µM"},
      {"measurement": "platelet aggregation inhibiting activity relative to Persantin", "setting": "[1]", "result": "equivalent to or more than"},
      {"measurement": "death up to the dose of 3 g/kg body weight", "setting": "mice", "result": "no death"},
      {"measurement": "LD50 at 336 h", "setting": "[3]", "result": "> 3000", "unit": "mg/kg"},
      {"measurement": "IC50", "setting": "[4]", "result": 0.05, "unit": "µM"}
    ]},
    {"smiles": "CCCCOc1ccc(S(=O)(=O)N(C)CC(=O)O)c2cc(C(C)=O)oc12", "note": "[Compound 9, 2-acetyl-4-(N-methyl-N-carboxymethylsulfamoyl)-7-n-butoxybenzofuran]", "values": [
      {"measurement": "IC50", "setting": "[1]; [5]", "result": "20 to 200", "unit": "µM"},
      {"measurement": "IC50", "setting": "[1]; [6]", "result": 600, "unit": "µM"},
      {"measurement": "platelet aggregation inhibiting activity relative to Persantin", "setting": "[1]", "result": "equivalent to or more than"},
      {"measurement": "death up to the dose of 3 g/kg body weight", "setting": "mice", "result": "no death"},
      {"measurement": "LD50 at 336 h", "setting": "[3]", "result": "> 3000", "unit": "mg/kg"},
      {"measurement": "IC50", "setting": "[4]", "result": 1, "unit": "µM"}
    ]},
    {"smiles": "CC(=O)c1cc2c(S(=O)(=O)N(CC(=O)O)Cc3ccc(Cl)cc3)ccc(OCc3ccc(Cl)cc3)c2o1", "note": "[Compound 34, 2-acetyl-4-(N-p-chlorobenzyl-N-carboxymethylsulfamoyl)-7-p-chlorobenzyloxybenzofuran]", "values": [
      {"measurement": "death up to 2 g/kg body weight", "setting": "mice", "result": "no death"},
      {"measurement": "LD50 at 336 h", "setting": "[3]", "result": "> 2000", "unit": "mg/kg"},
      {"measurement": "IC50", "setting": "[4]", "result": 0.8, "unit": "µM"}
    ]},
    {"smiles": "CCCOc1ccc(S(=O)(=O)NCC(=O)O)c2cc(C(C)=O)oc12", "note": "[Compound 3, 2-acetyl-4-(N-carboxymethylsulfamoyl)-7-n-propoxybenzofuran]", "values": [
      {"measurement": "death up to the dose of 3 g/kg body weight", "setting": "mice", "result": "no death"},
      {"measurement": "LD50 at 336 h", "setting": "[3]", "result": "> 3000", "unit": "mg/kg"},
      {"measurement": "IC50", "setting": "[4]", "result": 0.06, "unit": "µM"}
    ]},
    {"smiles": "CC(=O)COc1ccc(S(=O)(=O)NCC(=O)O)c2cc(C(C)=O)oc12", "note": "[Compound 26, 2-acetyl-4-(N-carboxymethylsulfamoyl)-7-acetonyloxybenzofuran]", "values": [
      {"measurement": "death up to 2 g/kg body weight", "setting": "mice", "result": "no death"},
      {"measurement": "LD50 at 336 h", "setting": "[3]", "result": "> 2000", "unit": "mg/kg"},
      {"measurement": "IC50", "setting": "[4]", "result": 0.2, "unit": "µM"}
    ]}
  ]
}
